In patent US20240391958A1, “KEANUMYCINS AND USES THEREOF IN MEDICINE AND PLANT PROTECTION” (Leibniz-Institut für Naturstoff-Forschung und …, priority 2023, published 2024):
Converted amounts (≈) assume the structure as drawn. Where two headings read alike, the source gives them in different places. Blank lines part the entries; values can stand above or below the compound they belong to. Where a SMILES comes first, the peptide text is derived from it. Bridges are numbered along the chain shown (N, C = ends). [ ]: non-standard residue; d: D form. The star is where a group is joined. Decanoyl(3R-OH) = CCCCCCC[C@@H](O)CC(=O)*; d(aThr) = C[C@@H](O)[C@@H](N)C(=O)O; Dab = NCC[C@H](N)C(=O)O; Dhb = C/C=C(\N)C(=O)O

Legend:
[1] = test system: Pseudomonas aeruginosa K799/61; assay: Disk diffusion test; assay type: cell-based; conditions: 5 μg/mL in water, 50 μL per 9 mm hole, 24 h 37 °C
Experimental: (§1) A qualitative screen of different microorganisms was performed using a disk diffusion test. Each microorganism was plated on Mueller Hinton agar plates and 9 mm holes were punched out. The respective compounds were dissolved in the indicated solvent to yield solutions of specified concentrations. 50 μL of the respective solutions were placed in each hole. The plates were incubated for 24 h at 37° C. After incubation, the size of inhibition zones was determined.

[2] = test system: Enterococcus faecalis (VRE) 1528; assay: Disk diffusion test; assay type: cell-based; conditions: 5 μg/mL in water, 50 μL per 9 mm hole, 24 h 37 °C
Experimental: as §1

Mycobacterium vaccae = assay: Disk diffusion test; assay type: cell-based; conditions: 5 μg/mL in water, 50 μL per 9 mm hole, 24 h 37 °C
Experimental: as §1

Bacillus subtilis = assay: Disk diffusion test; assay type: cell-based; conditions: 5 μg/mL in water, 50 μL per 9 mm hole, 24 h 37 °C
Experimental: as §1

Escherichia coli = assay: Disk diffusion test; assay type: cell-based; conditions: 5 μg/mL in water, 50 μL per 9 mm hole, 24 h 37 °C
Experimental: as §1

[3] = test system: Pseudomonas aeruginosa SG 137; assay: Disk diffusion test; assay type: cell-based; conditions: 5 μg/mL in water, 50 μL per 9 mm hole, 24 h 37 °C
Experimental: as §1

[4] = test system: Staphylococcus aureus SG 511; assay: Disk diffusion test; assay type: cell-based; conditions: 5 μg/mL in water, 50 μL per 9 mm hole, 24 h 37 °C
Experimental: as §1

[5] = test system: Staphylococcus aureus (MRSA) 134/94; assay: Disk diffusion test; assay type: cell-based; conditions: 5 μg/mL in water, 50 μL per 9 mm hole, 24 h 37 °C
Experimental: as §1

Penicillium notatum = assay: Disk diffusion test; assay type: cell-based; conditions: 10 μg/mL in DMSO/MeOH, 50 μL per 9 mm hole, 24 h 37 °C; methanol alone 10 mm
Experimental: as §1

[6] = test system: Sporobolomyces salmonicolor; assay: Disk diffusion test; assay type: cell-based; conditions: 10 μg/mL in DMSO/MeOH, 50 μL per 9 mm hole, 24 h 37 °C; methanol alone 10 mm
Experimental: as §1

Candida albicans = assay: Disk diffusion test; assay type: cell-based; conditions: 10 μg/mL in DMSO/MeOH, 50 μL per 9 mm hole, 24 h 37 °C
Experimental: as §1

Candida auris 2021-353 = assay: Broth dilution method (EUCAST); assay type: cell-based; conditions: Candidozyma auris, 2021353; Candida auris 2021-353, EUCAST E.DEF 9.3.2; read-out: Result of the broth dilution method assay (MIC)
Experimental: (§2) The activity assay was performed using the broth dilution method according to the EUCAST DEFINITIVE DOCUMENT E.DEF 9.3.2. B. cinerea and A. solani were incubated according to the Methods for dilution antimicrobial susceptibility tests for bacteria that grow aerobically by the NCCLS. Keanumycin A was dissolved in DMSO.

[7] = test system: Candida tropicalis 2021-360; assay: Broth dilution method (EUCAST); assay type: cell-based; conditions: 2021360; Candida tropicalis 2021-360, EUCAST E.DEF 9.3.2; read-out: Result of the broth dilution method assay (MIC)
Experimental: as §2

[8] = test system: Candida glabrata 2021-359; assay: Broth dilution method (EUCAST); assay type: cell-based; conditions: Nakaseomyces glabratus, 2021359; Candida glabrata 2021-359, EUCAST E.DEF 9.3.2; read-out: Result of the broth dilution method assay (MIC)
Experimental: as §2

[9] = test system: Candida parapsilosis ATCC 22019; assay: Broth dilution method (EUCAST); assay type: cell-based; conditions: Lodderomyces parapsilosis, ATCC22019; Candida parapsilosis ATCC 22019, EUCAST E.DEF 9.3.2; read-out: Result of the broth dilution method assay (MIC)
Experimental: as §2

Candida strains = conditions: against Candida strains; cited from earlier work
C. albicans = assay: Membrane permeabilization assay using SYTOX Green; assay type: cell-based, Candida albicans; conditions: 4 μg mL-1 in 1% DMSO
Text: Only isolated cells are stained, which can be explained by the fact that the dye can also be used to distinguish dead from live cells. Scale bar=100 μm.
To finally examine if keanumycin A is a membrane-active compound, the inventors performed a membrane permeabilization assay using SYTOX Green (FIG. 6). As a cell-impermeant dye, SYTOX Green enters the cell upon loss of membrane integrity and binds to DNA, which results in fluorescently stained cells. […] Thus, the keanumycins are membrane-active compounds that disturb the structure of the fungal […].

[10] = test system: Fusarium proliferatum 2021-361; assay: Broth dilution method (EUCAST); assay type: cell-based; conditions: 2021361; Fusarium proliferatum 2021-361, EUCAST E.DEF 9.3.2; read-out: Result of the broth dilution method assay (MIC)
Experimental: as §2

[11] = test system: Aspergillus fumigatus ATCC 204305; assay: Broth dilution method (EUCAST); assay type: cell-based; conditions: ATCC204305; Aspergillus fumigatus ATCC 204305, EUCAST E.DEF 9.3.2; read-out: Result of the broth dilution method assay (MIC)
Experimental: as §2

[12] = test system: Rhizopus arrhizus 2021-366; assay: Broth dilution method (EUCAST); assay type: cell-based; conditions: 2021366; Rhizopus arrhizus 2021-366, EUCAST E.DEF 9.3.2; read-out: Result of the broth dilution method assay (MIC)
Experimental: as §2

[13] = test system: Scedosporium apiospermum 2016-079; assay: Broth dilution method (EUCAST); assay type: cell-based; conditions: 2016079; Scedosporium apiospermum 2016-079, EUCAST E.DEF 9.3.2; read-out: Result of the broth dilution method assay (MIC)
Experimental: as §2

[14] = test system: Botrytis cinerea SF011406; assay: Broth dilution method (NCCLS); assay type: cell-based
Experimental: as §2

[15] = Stability of isolated keanumycin C; assay type: physicochemical; conditions: in solution or concentrated to dryness
Text: The inventors isolated keanumycin A (m/z 583.7892 [M+2H]2+ consistent with the molecular formula C49H84ClN11O19) and impure keanumycin B (m/z 575.7900 [M+2H]2+; C49H84ClN11O18), which could not be separated from an unknown metabolite (FIG. 1A). The inventors were also able to isolate keanumycin C (m/z 591.7866 [M+2H]2+; C49H84ClN11O20). […] Therefore, a detailed NMR analysis was only performed on keanumycin A. Important correlations in the ^1H, ^1H-correlation spectroscopy (COSY) experiment disclosed the presence of a 3,4-dihydroxylated linear fatty acid, which is a rare motif in NRLPs and only described for two other members of the syringomycin family (FIG. 2A). […] Saponification of keanumycin A under mild conditions led to the expected dechlorinated and linear lipopeptide 1, whose planar structure was confirmed by further HRMS2 experiments.

Compound: O=C(O)c1cn(C2CC2)c2cc(N3CCNCC3)c(F)cc2c1=O [Ciprofloxacin, reference compound]
Inhibition area diameter [1]: 28 mm
Inhibition area diameter [2]: 16 mm
Inhibition area diameter (Mycobacterium vaccae): 22 mm
Inhibition area diameter (Bacillus subtilis): 29 mm
Inhibition area diameter (Escherichia coli): 26 mm
Inhibition area diameter [3]: 26 mm
Inhibition area diameter [4]: 17 mm
Inhibition area diameter [5]: 0 mm

Compound: C[C@@H]1[C@H](O)[C@@H](C)/C=C/C=C/C=C/C=C/C=C/C=C/C=C/[C@H](O[C@@H]2O[C@H](C)[C@@H](O)[C@H](N)[C@@H]2O)C[C@@H]2O[C@](O)(C[C@@H](O)C[C@@H](O)[C@H](O)CC[C@@H](O)C[C@@H](O)CC(=O)O[C@H]1C)C[C@H](O)[C@H]2C(=O)O [Amphotericin B, reference compound]
Inhibition area diameter (Penicillium notatum): 18 mm
Inhibition area diameter [6]: 18 mm
Inhibition area diameter (Candida albicans): 21 mm

MIC (Candida auris 2021-353): < 64 µg/mL
MIC [7]: 64 µg/mL (≈ 209 µM)
MIC [8]: 2 µg/mL (≈ 6.53 µM)
MIC [9]: 2 µg/mL (≈ 6.53 µM)
Compound: OC(Cn1cncn1)(Cn1cncn1)c1ccc(F)cc1F [Fluconazol, reference compound]

Compound: hassallidin D
IC50 (Candida strains): 0.29 to 1 µM

Compound: tunicamycin [reference compound]
membrane permeabilization (SYTOX Green staining) (C. albicans): membrane integrity of C. albicans is not disturbed
membrane permeabilization (SYTOX Green staining) (C. albicans; listed as Tunicamycin): did not cause a loss of membrane integrity

MIC (Candida auris 2021-353): 1 µg/mL (≈ 2.86 µM)
MIC [10]: 8 µg/mL (≈ 22.9 µM)
MIC [7]: 1 µg/mL (≈ 2.86 µM)
MIC [11]: 0.5 µg/mL (≈ 1.43 µM)
MIC [8]: 0.06 µg/mL (≈ 0.172 µM)
MIC [9]: 0.03 µg/mL (≈ 0.0859 µM)
MIC [12]: > 8 µg/mL
MIC [13]: 1 µg/mL (≈ 2.86 µM)
Compound: C[C@@H](c1ncncc1F)[C@](O)(Cn1cncn1)c1ccc(F)cc1F [Voriconazol, reference compound]

MIC (Candida auris 2021-353): 0.06 µg/mL (≈ 0.0856 µM)
MIC [10]: > 8 µg/mL
MIC [7]: 0.125 µg/mL (≈ 0.178 µM)
MIC [11]: 0.125 µg/mL (≈ 0.178 µM)
MIC [8]: 0.25 µg/mL (≈ 0.357 µM)
MIC [9]: 0.06 µg/mL (≈ 0.0856 µM)
MIC [12]: 4 µg/mL (≈ 5.71 µM)
MIC [13]: > 8 µg/mL
Compound: CC[C@@H]([C@H](C)O)n1ncn(-c2ccc(N3CCN(c4ccc(OC[C@@H]5CO[C@@](Cn6cncn6)(c6ccc(F)cc6F)C5)cc4)CC3)cc2)c1=O [Posaconazol, reference compound]

Compound: C/C=C(\NC(=O)[C@@H](CC(C)C)NC(=O)[C@@H](C)NC(=O)[C@H](NC(=O)[C@@H](C)NC(=O)[C@@H](CO)NC(=O)[C@H](NC(=O)[C@H](C)NC(=O)[C@@H](C)NC(=O)[C@@H](C)NC(=O)[C@H](NC(=O)[C@H](NC(=O)[C@H]1CCCN1C(=O)/C(=C/C)NC(=O)C[C@H](O)CCCCCCC)[C@H](C)CC)C(C)C)C(C)C)C(C)C)C(=O)N[C@H]1C(=O)N[C@@H](C)C(=O)N[C@@H](CCN)C(=O)N[C@H](CO)C(=O)N[C@@H](Cc2ccccc2)C(=O)O[C@@H]1C [jessenipeptin, reference compound] ({Decanoyl(3R-OH)}-[Dhb][dP][dI][dV][dA][dA]A[dV][dS][dA][dV][dA][dL][Dhb][d(aThr)]A[Dab][dS]F; ester 15-C)
MIC ([14]; B. cinerea): 10 µg/mL
MIC ([14]; Botrytis cinerea, NCCLS, 22 °C, read-out: MIC): 5.2 µM

Compound: keanumycin C
stability [15]: slowly degrades in solution or when concentrated to dryness
